Values after ≈ are worked out from the molar mass of the structure shown. Where two headings read alike, the source gives them in different places. Each block holds one molecule with its values, some of them ahead of it.
Columns and labels:
[1] = in vitro; details: human, plasma
[2] = biological target: CYP2C19 (Homo sapiens, UniProt P33261); test: Inhibition of CYP enzyme activity (S-mephenytoin probe); details: test compound 10 uM; activity expressed as percentage of control
[3] = tested on: A. baumannii; test: MIC against Gram-positive/Gram-negative panel; type: cell-based; details: Acinetobacter baumannii, ATCC17904
[4] = tested on: E. faecalis; test: MIC against Gram-positive/Gram-negative panel; type: cell-based; details: Enterococcus faecalis
[5] = tested on: P. aeruginosa; test: MIC against Gram-positive/Gram-negative panel; type: cell-based; details: Pseudomonas aeruginosa, ATCC27853
[6] = tested on: E. faecium; test: MIC against Gram-positive/Gram-negative panel; type: cell-based; details: Enterococcus faecium
[7] = tested on: K. pneumoniae; test: MIC against Gram-positive/Gram-negative panel; type: cell-based; details: Klebsiella pneumoniae, ATCC10031
[8] = tested on: E. coli; test: MIC against Gram-positive/Gram-negative panel; type: cell-based; details: Escherichia coli, ATCC25922
[9] = tested on: S. aureus; test: MIC against Gram-positive/Gram-negative panel; type: cell-based; details: Staphylococcus aureus
[10] = tested on: C. difficile ribotype 027; test: Mouse IBD-C. difficile comorbidity infection model; type: in vivo; details: mice, DSS-induced IBD + C. difficile ribotype 027, 30 mg/kg once daily oral gavage, observed period of 15 days
Experimental: C. difficile ribotype 027 was grown on blood agar plate and incubated for two days at 37 ℃ in an anaerobic chamber and sub-cultured on 70:30 sporulation medium to facilitate the sporulation of C. difficile ribotype 027. Briefly, the sporulation medium consists of 70% SMC (Bacto peptone 90 g, protease peptone 5 g, NH4SO4 1 g, tris base 1.5 g, agar 15 g per liter) and 30% BHIS (BHI agar with 0.5% yeast extract) agar. For inoculation, bacterial colonies were suspended in 0.9% saline solution and further diluted with saline solutions to adjust OD (Optical Density) 1.0 at 1/10 of original saline solutions. Groups of five male C57BL/6J mice were injected orally with a single 0.5 mL dose of the bacterial suspension.
All animal experiments were conducted in accordance with the ethical guidelines of the Ethics Review Committee for Animal Experimentation at Handong Global University (Republic of Korea, protocol #HGU-20211214-20). C57BL/6J male (4-week-old male weighing 20 to 22 g, Daehan Bio Link Co., Ltd., Eumseong, Korea) 5 mouse per group was used in C. difficile infection model. Mice were maintained in animal chambers kept at 23 ± 2 ℃ with 55% ± 20% relative humidity. An amount of 2% dextran sodium sulfate (DSS, MP biomedical, Irvine, CA, USA) was inoculated by drinking water for 5 days to cause colitis in mice. […]

[11] = tested on: C. difficile ribotype 027; test: Time-kill assay; type: cell-based, Clostridioides difficile; details: C. difficile ribotype 027, at 1×, 2× and 4× MIC; bactericidal = ≥3 log10 CFU/mL reduction vs starting inoculum
Experimental: The time-kill studies were performed by the CLSI method. […] Vancomycin was diluted in distilled water and AJ-024 was diluted in 1% (v/v) DMSO. […] Samples were removed at 0, 3, 6, and 24 h post inoculation, and serial 10-fold dilutions were performed. The number of viable cells were determined on BHI agar containing 0.5% yeast extract and 5% defibrinated sheep blood after 24 h of incubation. The plates were incubated at 37 ℃ in an anaerobic chamber. Antimicrobials were considered bactericidal at the lowest concentration that reduced the original inoculum by 3 log 10 CFU/mL at each of the time periods and bacteriostatic if the inoculum was reduced by 0 to 3 log 10 CFU/mL.

[12] = tested on: C. difficile; details: treatment of CDI; background statement of the introduction; cited from earlier work
[13] = tested on: C. difficile clinical isolates; test: MIC by agar dilution, classified C. difficile clinical isolates (South Korea); type: cell-based, Clostridioides difficile
[14] = tested on: C. difficile; test: MIC by agar dilution, representative C. difficile strains; type: cell-based; details: Clostridioides difficile
[15] = Plasma stability; type: in vitro ADME; details: human plasma, 30 min; read-out: PS % Remaining (30 min)
Experimental: No significant metabolic liabilities were noted. Incubation of AJ-024 for 30 min with human liver microsomes and with human plasma proteins returned 63.8% and 95.9% of unchanged compound, respectively.

[16] = A. baumannii ATCC 17904, read-out: MIC
[17] = ATCC29212, E. faecalis ATCC 29212, read-out: MIC
[18] = E. faecalis clinical isolate, read-out: MIC
[19] = P. aeruginosa ATCC 27853, read-out: MIC
[20] = ATCC19434, E. faecium ATCC 19434, read-out: MIC
[21] = E. faecium clinical isolate, read-out: MIC
[22] = K. pneumoniae ATCC 10031, read-out: MIC
[23] = E. coli ATCC 25922, read-out: MIC
[24] = ATCC25923, S. aureus ATCC 25923, read-out: MIC
[25] = ATCC43300, S. aureus ATCC 43300, read-out: MIC
[26] = S. aureus clinical isolate, read-out: MIC

Chain of CYP2C19 (P33261 whole entry): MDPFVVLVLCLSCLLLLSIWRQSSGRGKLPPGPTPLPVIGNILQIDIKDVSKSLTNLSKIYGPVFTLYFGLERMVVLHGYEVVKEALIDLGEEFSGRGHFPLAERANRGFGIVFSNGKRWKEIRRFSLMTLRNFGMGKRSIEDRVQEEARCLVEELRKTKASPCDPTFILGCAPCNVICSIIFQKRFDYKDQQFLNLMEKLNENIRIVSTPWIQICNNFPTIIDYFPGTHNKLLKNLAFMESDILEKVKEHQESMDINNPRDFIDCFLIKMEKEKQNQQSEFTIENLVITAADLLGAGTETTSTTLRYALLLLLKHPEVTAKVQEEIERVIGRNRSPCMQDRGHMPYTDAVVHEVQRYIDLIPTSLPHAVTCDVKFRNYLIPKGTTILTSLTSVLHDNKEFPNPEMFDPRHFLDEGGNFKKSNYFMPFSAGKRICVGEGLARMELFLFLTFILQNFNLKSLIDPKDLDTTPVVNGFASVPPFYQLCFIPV

fraction unbound at 4 h, 10 μM [1]: 0.212
SMILES: C[C@@H]1C[C@H]2[C@@H]3CCC4=CC(=O)C=C[C@]4(C)[C@@]3(F)[C@@H](O)C[C@]2(C)[C@@]1(O)C(=O)CO [Dexamethasone, reference compound]

SMILES: CC(=O)N1CCN(c2ccc(OCC3COC(Cn4ccnc4)(c4ccc(Cl)cc4Cl)O3)cc2)CC1 (centres unmarked) [Ketoconazole, reference compound]
CYP Inhibition 2C19 [2]: 97.6

SMILES: CC=C(NC(=O)c1csc(-c2csc(-c3ccc4c(n3)-c3csc(n3)C(C(C)O)NC(=O)c3csc(n3)C(C(C)C)NC(=O)c3csc(n3)C(=CC)NC(=O)C(C(C)O)NC(=O)c3csc-4n3)n2)n1)C(=O)NCCn1c([N+](=O)[O-])cnc1C (centres unmarked) [AJ-024]
MIC [3, 16]: > 32 µg/mL | MIC [4, 17]: 0.25 µg/mL (≈ 0.202 µM) | MIC [4, 18]: 0.25 µg/mL (≈ 0.202 µM) | MIC [5, 19]: > 32 µg/mL | MIC [6, 20]: 0.25 µg/mL (≈ 0.202 µM) | MIC [6, 21]: 0.5 µg/mL (≈ 0.403 µM) | MIC [7, 22]: > 32 µg/mL | MIC [8, 23]: > 32 µg/mL | MIC [9, 24]: 0.25 µg/mL (≈ 0.202 µM) | MIC [9, 25]: 0.25 µg/mL (≈ 0.202 µM) | MIC [9, 26]: 0.5 µg/mL (≈ 0.403 µM)

SMILES: CN[C@H](CC(C)C)C(=O)N[C@H]1C(=O)N[C@@H](CC(N)=O)C(=O)N[C@H]2C(=O)N[C@H]3C(=O)N[C@H](C(=O)N[C@H](C(=O)O)c4cc(O)cc(O)c4-c4cc3ccc4O)[C@H](O)c3ccc(c(Cl)c3)Oc3cc2cc(c3O[C@@H]2O[C@H](CO)[C@@H](O)[C@H](O)[C@H]2O[C@H]2C[C@](C)(N)[C@H](O)[C@H](C)O2)Oc2ccc(cc2Cl)[C@H]1O [Vancomycin]
Survival rate [10]: 80% | MIC [3]: > 32 µg/mL | Killing activity (bactericidal / bacteriostatic) [11]: bacteriostatic | Rate of relapse [12]: 25% to 30% | MIC [4]: > 32 µg/mL | MIC ([4]; ATCC29212): 0.5 µg/mL (≈ 0.345 µM) | MIC range [13]: 0.5 to 2 µg/mL | MIC50 ([13]; Clostridioides difficile): 1 µg/mL (≈ 0.69 µM) | MIC [5]: > 32 µg/mL | MIC [6]: > 32 µg/mL | MIC ([6]; ATCC19434): 1 µg/mL (≈ 0.69 µM) | MIC [7]: > 32 µg/mL | MIC ([14]; ATCC9689): 1 µg/mL (≈ 0.69 µM) | MIC ([14]; ATCC17858): 1 µg/mL (≈ 0.69 µM) | MIC ([14]; ATCC43255): 1 µg/mL (≈ 0.69 µM) | MIC ([14]; ATCC51695): 1 µg/mL (≈ 0.69 µM) | MIC ([14]; ATCCBAA1871): 1 µg/mL (≈ 0.69 µM) | MIC [8]: > 32 µg/mL | MIC [9]: > 32 µg/mL | MIC ([9]; ATCC25923): 0.5 µg/mL (≈ 0.345 µM) | MIC ([9]; ATCC43300): 0.5 µg/mL (≈ 0.345 µM)

SMILES: CC(=O)NC[C@H]1CN(c2ccc(N3CCOCC3)c(F)c2)C(=O)O1 [LIZ, Linezolid]
MIC [3, 16]: > 32 µg/mL | MIC [4, 17]: 2 µg/mL (≈ 5.93 µM) | MIC [4, 18]: 4 µg/mL (≈ 11.9 µM) | MIC [5, 19]: > 32 µg/mL | MIC [6, 20]: 2 µg/mL (≈ 5.93 µM) | MIC [6, 21]: 2 µg/mL (≈ 5.93 µM) | MIC [7, 22]: > 32 µg/mL | MIC [8, 23]: > 32 µg/mL | MIC [9, 24]: 2 µg/mL (≈ 5.93 µM) | MIC [9, 25]: 2 µg/mL (≈ 5.93 µM) | MIC [9, 26]: 1 µg/mL (≈ 2.96 µM)

remaining at 0.5 h [15]: 95.2%
SMILES: CCOC(=O)[C@H](CCc1ccccc1)N[C@@H](C)C(=O)N1CCC[C@H]1C(=O)O [Enalapril]

remaining at 0.5 h [15]: 1.4%
SMILES: CCN(CC)CCOC(=O)c1ccc(N)cc1 [Procaine]

Source: article PMC9142968, “Nitro-Group-Containing Thiopeptide Derivatives as Promising Agents to Target Clostridioides difficile” (Pharmaceuticals, 2022)
